Fold-induction of luciferase and activity data for one compound are collected here from patent US20260327655A1, “SMALL-MOLECULE REGULATED ALTERNATIVE SPLICING” (priority 2023, published 2026).

One test relates to RS4-1 and variants. The test can be described thus: Luciferase induction assay, RS4-1 and variants in HEK-293T cells. In kind it is cell-based, human. As to conditions: 18 hours, FIGS. 15A, 15B. How it is done:
HEK-293T cells were cultured in DMEM+10% FBS, collected after trypsinization, and dispensed into 96-well plates (cell culture-treated). Each well of the plate was seeded with 1.0×10^5 cells in 100 μL culture medium. After a 1-hour incubation in the tissue culture incubator (5% CO2, 37° C.), plasmid DNA was complexed with a transfection reagent, such as Lipofectamine 3000, and added to respective wells on the plate. Each well received 100 ng of plasmid DNA complexed with 0.15 μL Lipofectamine 3000. The plasmids utilized in the experiment encoded a CMV promoter upstream of the RS4-1 construct and variants that controlled the expression of a Firefly Luciferase gene followed by a SV40 polyadenylation signal. After a 10-minute incubation at room temperature, either DMSO vehicle or 24 A at specified doses was added to the wells of the plate. Plates were then incubated for 18 hours in a tissue culture incubator. Endpoint analysis was performed by adding 100 uL of a Luciferase substrate, such as Steady-Luc Firefly Luciferase substrate, to each well of the assay plate. The liquid contents of each was transferred to a 96-well plate, mixed again for 2 min on an orbital shaker, and incubated at room temperature for 5 min. Finally, the luminescent signal from each well was measured with a plate reader. […]

The test system of a further test is RS1-10, Flp-In-293 cells. The test can be described thus: Comparison of RS1-10 Flp-In cell line with constitutive Flp-In cell line. In kind it is cell-based. As to conditions: Homo sapiens, 7 nM, 18 hours, FIG. 9G, read-out: luciferase signal relative to constitutively expressing cell line as 100%. As for the experimental part: Single-copy insertion of RSI-10 sequence and subsequent cell-line generation was performed in Flp-In-293 cells according to manufacturer's protocols. The RS1-10 sequence fused to a Firefly Luciferase gene was cloned into a Flp-In compatible pcDNA5/FRT expression vector with a CMV promoter and BGH polyadenylation signal. The resulting Flp-In cell line carried a single-copy expression cassette of RS1-10 integrated into the genome. Similarly, a cell line constitutively expressing Firefly Luciferase from a single-copy genomic insertion was generated in Flp-In-293 cells. For the constitutive cell line, only the Firefly Luciferase gene was cloned into the pcDNA5/FRT expression vector that was used to generate the single-copy genomic insertion. Both cell lines were cultured in DMEM+10% FBS, collected after trypsinization, and then dispensed into 96-well plates (cell culture-treated). Each well of the plate was seeded with 1.0×10^5 cells in 100 μL culture medium. Subsequently, either DMSO vehicle or 24 A at specified doses was added to the wells of the plate containing the RS1-10 Flp-In 293 cells. Triplicate wells were used for each condition tested in the experiment. Plates were then incubated for 18 hours in a tissue culture incubator (5% CO2, 37 degrees C.). […]

For `CCN1CC(c2ccc(-c3ccc(-c4ccc5nn(C)cc5c4)cc3O)nn2)C1` [Compound 24A, 2-[6-(1-ethylazetidin-3-yl)pyridazin-3-yl]-5-(2-methyl-2H-indazol-5-yl)phenol], the fold-induction of luciferase entry in the test with RS4-1 and variants is “increasing fold-induction of luciferase with increasing concentrations”. For the same compound, the activity at 0.007 µM in the test on RS1-10, Flp-In-293 cells is at least 60%.
